Converted amounts (≈) assume the structure as drawn. Bridge positions count the residues as written; N and C are the ends. Peptide text beside a SMILES is read from it.
Legend:
[1] = molecular target: T1, Amylin receptor AMY3; CALCR/RAMP3 (Homo sapiens, UniProt O60896+P30988); experiment: Agonist activity at human AMY3R complex of CTR/RAMP3 expressed in Baby hamster kidney cells incubated for 3 hrs followed by medium replacement without compound measured after 30 mins by luciferase reporter assay; assay type: functional, cell-based, Baby hamster kidney cell
T1 sequence (P30988 whole entry): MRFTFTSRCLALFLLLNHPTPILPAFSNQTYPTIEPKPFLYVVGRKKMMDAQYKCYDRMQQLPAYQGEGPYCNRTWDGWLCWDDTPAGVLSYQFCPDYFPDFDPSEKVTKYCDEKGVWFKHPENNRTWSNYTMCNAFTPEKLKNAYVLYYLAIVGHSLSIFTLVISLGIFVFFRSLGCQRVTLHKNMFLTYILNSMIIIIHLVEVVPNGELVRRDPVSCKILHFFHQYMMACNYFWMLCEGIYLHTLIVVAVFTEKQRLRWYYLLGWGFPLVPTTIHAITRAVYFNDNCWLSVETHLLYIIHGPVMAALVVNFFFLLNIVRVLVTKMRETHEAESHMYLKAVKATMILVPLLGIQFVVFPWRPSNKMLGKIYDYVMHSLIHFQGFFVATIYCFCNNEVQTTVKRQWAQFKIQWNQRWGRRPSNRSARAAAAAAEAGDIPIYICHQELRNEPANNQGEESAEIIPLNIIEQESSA
T1 sequence (O60896 whole entry): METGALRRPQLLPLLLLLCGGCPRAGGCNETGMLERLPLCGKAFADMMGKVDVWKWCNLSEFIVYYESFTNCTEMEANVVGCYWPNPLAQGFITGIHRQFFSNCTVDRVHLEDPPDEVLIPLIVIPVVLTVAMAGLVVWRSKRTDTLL

Calcitonin receptor [2] = molecular target: T2, Calcitonin receptor (Homo sapiens, UniProt P30988); experiment: Agonist activity at human CTR expressed in Baby hamster kidney cells incubated for 3 hrs followed by medium replacement without compound measured after 30 mins by luciferase reporter assay; assay type: functional, cell-based, Baby hamster kidney cell
T2 sequence (P30988 whole entry): T1 sequence (P30988 whole entry)

[3] = molecular target: T3, Amylin receptor AMY3; CALCR/RAMP3 (Rattus norvegicus, UniProt P32214+Q9JJ73); experiment: Agonist activity at rat AMY3R complex of CTR/RAMP3 expressed in Baby hamster kidney cells incubated for 3 hrs by cAMP assay; assay type: functional, cell-based, Baby hamster kidney cell
T3 sequence (P32214 whole entry): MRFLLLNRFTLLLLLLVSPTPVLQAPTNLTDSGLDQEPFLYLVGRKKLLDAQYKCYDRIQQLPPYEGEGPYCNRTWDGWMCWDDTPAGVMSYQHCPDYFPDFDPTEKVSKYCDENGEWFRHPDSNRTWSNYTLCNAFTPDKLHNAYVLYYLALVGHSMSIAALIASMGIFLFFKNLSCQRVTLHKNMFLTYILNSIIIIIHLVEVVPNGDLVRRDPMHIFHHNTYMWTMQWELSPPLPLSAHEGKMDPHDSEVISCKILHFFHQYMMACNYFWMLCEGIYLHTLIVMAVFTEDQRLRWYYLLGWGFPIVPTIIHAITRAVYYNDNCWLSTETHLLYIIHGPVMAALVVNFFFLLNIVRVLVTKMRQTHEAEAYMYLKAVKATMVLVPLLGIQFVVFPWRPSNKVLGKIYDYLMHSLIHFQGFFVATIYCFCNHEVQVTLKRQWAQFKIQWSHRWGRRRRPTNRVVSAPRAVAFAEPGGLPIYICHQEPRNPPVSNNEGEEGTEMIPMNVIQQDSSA
T3 sequence (Q9JJ73 whole entry): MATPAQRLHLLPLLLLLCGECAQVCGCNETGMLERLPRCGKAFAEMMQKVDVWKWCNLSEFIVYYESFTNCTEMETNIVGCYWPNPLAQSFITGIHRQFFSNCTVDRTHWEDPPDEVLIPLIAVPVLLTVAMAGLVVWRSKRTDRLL

Calcitonin receptor [4] = molecular target: T4, Calcitonin receptor (Rattus norvegicus, UniProt P32214); experiment: Agonist activity at rat CTR expressed in Baby hamster kidney cells incubated for 3 hrs by cAMP assay; assay type: functional, cell-based, Baby hamster kidney cell
T4 sequence (P32214 whole entry): T3 sequence (P32214 whole entry)

[5] = molecular target: T1, Amylin receptor AMY3; CALCR/RAMP3; experiment: Displacement of 125I-rat amylin from human AMY3R complex of CTR/RAMP3 expressed in Baby hamster kidney cell membrane incubated for 120 mins by SPA method; assay type: cell membranes
Calcitonin receptor [6] = molecular target: T2, Calcitonin receptor; experiment: Displacement of 125I-Calcitonin from human CTR expressed in Baby hamster kidney cell membrane incubated for 120 mins by SPA method; assay type: cell membranes
[7] = molecular target: T3, Amylin receptor AMY3; CALCR/RAMP3; experiment: Displacement of 125I-rat amylin from rat AMY3R complex of CTR/RAMP3 expressed in Baby hamster kidney cell membrane incubated for 120 mins by SPA method; assay type: cell membranes
Calcitonin receptor [8] = molecular target: T4, Calcitonin receptor; experiment: Displacement of 125I-Calcitonin from rat CTR expressed in Baby hamster kidney cell membrane incubated for 120 mins by SPA method; assay type: cell membranes
[9] = Solubility of compound at pH 3 incubated overnight by UPLC analysis; assay type: physicochemical; conditions: buffer
[10] = Solubility of compound at pH 4 incubated overnight by UPLC analysis; assay type: physicochemical; conditions: buffer
[11] = Solubility of compound at pH 5 incubated overnight by UPLC analysis; assay type: physicochemical; conditions: buffer
[12] = Solubility of compound at pH 6 incubated overnight by UPLC analysis; assay type: physicochemical; conditions: buffer
[13] = Solubility of compound at pH 6.5 incubated overnight by UPLC analysis; assay type: physicochemical; conditions: buffer
[14] = Solubility of compound at pH 7 incubated overnight by UPLC analysis; assay type: physicochemical; conditions: buffer
[15] = Solubility of compound at pH 7.5 incubated overnight by UPLC analysis; assay type: physicochemical; conditions: buffer
[16] = Solubility of compound at pH 8 incubated overnight by UPLC analysis; assay type: physicochemical; conditions: buffer
[17] = Stability against amyloid fibril formation at pH 7.5 assessed as lag time at 1 uM measured after 45 hrs by ThT assay; assay type: physicochemical; conditions: pH 7.5, 45 h
[18] = Stability against amyloid fibril formation at pH 7.5 assessed as compound recovery at 1 uM measured after 45 hrs by ThT assay; assay type: physicochemical; conditions: pH 7.5, 45 h
Homo sapiens = organism: Homo sapiens; experiment: Selectivity ratio of EC50 for human CTR expressed in Baby hamster kidney cells to EC50 for human AMY3R complex of CTR/RAMP3 expressed in Baby hamster kidney cells; assay type: cell-based
Rattus norvegicus = organism: Rattus norvegicus; experiment: Selectivity ratio of EC50 for rat CTR expressed in Baby hamster kidney cells to EC50 for rat AMY3R complex of CTR/RAMP3 expressed in Baby hamster kidney cells; assay type: cell-based

| Compound | EC50 [1] [nM] | EC50 (Calcitonin receptor [2]) [nM] | EC50 [3] [nM] | EC50 (Calcitonin receptor [4]) [nM] | IC50 [5] [nM] | IC50 (Calcitonin receptor [6]) [nM] | IC50 [7] [nM] | IC50 (Calcitonin receptor [8]) [nM] | solubility [9] [µM] | solubility [10] [µM] | solubility [11] [µM] | solubility [12] [µM] | solubility [13] [µM] | solubility [14] [µM] | solubility [15] [µM] | solubility [16] [µM] | Time [17] [h] | Drug recovery [18] [%] | Ratio EC50 (Homo sapiens) | Ratio EC50 (Rattus norvegicus) |
| --- | --- | --- | --- | --- | --- | --- | --- | --- | --- | --- | --- | --- | --- | --- | --- | --- | --- | --- | --- | --- |
| CC[C@H](C)[C@H](NC(=O)[C@H](C)NC(=O)CNC(=O)[C@H](Cc1ccccc1)NC(=O)[C@H](CC(N)=O)NC(=O)[C@@H]1CCCN1C(=O)[C@H](CO)NC(=O)[C@H](CO)NC(=O)[C@H](Cc1c[nH]cn1)NC(=O)[C@H](CCCNC(=N)N)NC(=O)[C@H](CC(C)C)NC(=O)[C@H](Cc1ccccc1)NC(=O)[C@H](CC(=O)O)NC(=O)[C@H](C)NC(=O)[C@H](CC(C)C)NC(=O)[C@H](CCCNC(=N)N)NC(=O)[C@H](CCC(N)=O)NC(=O)[C@@H](NC(=O)[C@H](C)NC(=O)[C@@H]1CSSC[C@H](NC(=O)[C@@H](N)CCCCN)C(=O)N[C@@H](CC(N)=O)C(=O)N[C@@H]([C@@H](C)O)C(=O)N[C@@H](C)C(=O)N[C@@H]([C@@H](C)O)C(=O)N1)[C@@H](C)O)C(=O)N1CCC[C@H]1C(=O)N[C@@H](CO)C(=O)N[C@@H](CO)C(=O)N[C@H](C(=O)N[C@@H](CC(N)=O)C(=O)N[C@H](C(=O)NCC(=O)N[C@@H](CO)C(=O)N[C@@H](CC(=O)O)C(=O)N[C@H](C(=O)N[C@@H](Cc1ccc(O)cc1)C(N)=O)[C@@H](C)O)C(C)C)[C@@H](C)O | 0.161 | 2.48 | 0.643 | 861 | 0.355 | 19.5 | 0.217 | 96.9 | ≥ 200 | ≥ 200 | ≥ 200 | ≥ 200 | 190 (≈ 747 µg/mL) | ≥ 200 | ≥ 200 | ≥ 200 | > 45 | 100 |  |  |
| CC(C)C[C@H](NC(=O)[C@H](CCCNC(=N)N)NC(=O)[C@H](CCC(N)=O)NC(=O)[C@@H](NC(=O)[C@H](C)NC(=O)[C@@H]1CSSC[C@H](NC(=O)[C@@H](N)CCCCN)C(=O)N[C@@H](CC(N)=O)C(=O)N[C@@H]([C@@H](C)O)C(=O)N[C@@H](C)C(=O)N[C@@H]([C@@H](C)O)C(=O)N1)[C@@H](C)O)C(=O)N[C@@H](C)C(=O)N[C@@H](CC(=O)O)C(=O)N[C@@H](Cc1ccccc1)C(=O)N[C@@H](CC(C)C)C(=O)N[C@@H](CCCNC(=N)N)C(=O)N[C@@H](Cc1c[nH]cn1)C(=O)N[C@@H](CO)C(=O)N[C@@H](CO)C(=O)N[C@@H](CCC(N)=O)C(=O)N[C@@H](CC(N)=O)C(=O)N[C@@H](Cc1ccccc1)C(=O)NCC(=O)N[C@@H](C)C(=O)N1CCC[C@H]1C(=O)N[C@@H](CC(C)C)C(=O)N[C@@H](CO)C(=O)N[C@@H](CO)C(=O)N[C@H](C(=O)N[C@@H](CC(N)=O)C(=O)N[C@H](C(=O)NCC(=O)N[C@@H](CO)C(=O)N1CCC[C@H]1C(=O)N[C@H](C(=O)N[C@@H](Cc1ccc(O)cc1)C(N)=O)[C@@H](C)O)C(C)C)[C@@H](C)O (H-KCNTATCATQRLADFLRHSSQNFGAPLSSTNVGSPTY-NH2; disulfide 2-7) | 1.54 | 1.37 |  |  |  |  |  |  | ≥ 200 | ≥ 200 | ≥ 200 | ≥ 200 | 75 (≈ 296 µg/mL) | 7 (≈ 27.6 µg/mL) | 7 (≈ 27.6 µg/mL) | 15 (≈ 59.1 µg/mL) | 0 | 0 | 0.9 |  |
| CC(C)C[C@H](NC(=O)[C@H](CCCNC(=N)N)NC(=O)[C@H](CCC(N)=O)NC(=O)[C@@H](NC(=O)[C@H](C)NC(=O)[C@@H]1CSSC[C@H](NC(=O)[C@@H](N)CCCCN)C(=O)N[C@@H](CC(N)=O)C(=O)N[C@@H]([C@@H](C)O)C(=O)N[C@@H](C)C(=O)N[C@@H]([C@@H](C)O)C(=O)N1)[C@@H](C)O)C(=O)N[C@@H](C)C(=O)N[C@@H](CC(=O)O)C(=O)N[C@@H](Cc1ccccc1)C(=O)N[C@@H](CC(C)C)C(=O)N[C@@H](CCCNC(=N)N)C(=O)N[C@@H](Cc1c[nH]cn1)C(=O)N[C@@H](CO)C(=O)N[C@@H](CO)C(=O)N[C@@H](CCC(N)=O)C(=O)N[C@@H](CC(N)=O)C(=O)N[C@@H](Cc1ccccc1)C(=O)NCC(=O)N[C@@H](C)C(=O)N1CCC[C@H]1C(=O)N[C@@H](CC(C)C)C(=O)N[C@@H](CO)C(=O)N[C@@H](CO)C(=O)N[C@H](C(=O)N1CCC[C@H]1C(=O)N[C@H](C(=O)NCC(=O)N[C@@H](CO)C(=O)N[C@@H](CC(=O)O)C(=O)N[C@H](C(=O)N[C@@H](Cc1ccc(O)cc1)C(N)=O)[C@@H](C)O)C(C)C)[C@@H](C)O (H-KCNTATCATQRLADFLRHSSQNFGAPLSSTPVGSDTY-NH2; disulfide 2-7) | 0.18 | 0.697 | 0.463 | 14.3 |  |  |  |  | ≥ 200 | ≥ 200 | ≥ 200 | ≥ 200 | ≥ 200 | ≥ 200 | ≥ 200 | ≥ 200 | > 45 | 100 | 3.9 | 31 |

Source: ChEMBL document CHEMBL5523739, “NN1213 - A Potent, Long-Acting, and Selective Analog of Human Amylin” (J Med Chem, 2024)
